In the NIST ThermoML archive (doi:10.1021/acs.jced.8b00793):
Numbers after ± are expanded uncertainties.

Conditions: 100 kPa, Liquid; for viscosity: Concentric cylinders viscometry; for mass density: Vibrating tube method

CCO [ethanol]
Conditions	mass density [kg/m3]	viscosity [mPa·s]
293.15 K	790.7 ± 3	1.23 ± 0.05
303.15 K	782.2 ± 3	1.02 ± 0.04
313.15 K	773.4 ± 3	0.85 ± 0.04
323.15 K	760.1 ± 3	0.71 ± 0.03
